In assay [1] the test system is porcine ciliated tracheal epithelial cells. The assay is described as follows: [Ca2+]i measurement in single fura-2 loaded ciliated tracheal cells. The format is cell-based. Here is the method:
Tracheal cells were isolated as previously described (Young et al., Vet. Microbiol., 71:269-279 (1999)). Briefly, the tracheas were removed from 3-6 month old specific-pathogen-free pigs anesthetized with sodium pentobarbital using aseptic techniques. The ciliated cells were dissociated using 0.15% pronase and 0.01% DNase in Ca^2+- and Mg^2+-free MEM medium, which was incubated at 4° C. for 24 hours. The epithelial cells were collected by centrifugation at 125× g for 5 minutes. The cell pellets were resuspended in a mixture of DMEM (high glucose) and Ham's F-12 (1:1) media containing 5% FBS, 0.12 U/mL of insulin, and 100 U/mL of penicillin-streptomycin. Cell suspensions were transferred to 90-mm tissue culture dishes and incubated in 5% CO2 for 60-90 minutes to remove fibroblasts. The tracheal epithelial cells were stored in liquid nitrogen until use.
(§1) The following techniques were used to obtain [Ca^2+]i measurements in single cells. The tracheal cells were loaded with 4 μM fura-2 acetoxymethyl ester (fura-2AM) in Krebs-Ringer bicarbonate (KRB) buffer solution containing: 136 mM NaCl, 4.8 mM KCl, 1.5 mM CaCl2, 1.2 mM KH2PO4, 1.2 mM MgSO4, 10 mM HEPES, 5.5 mM glucose, and 0.1% BSA, pH 7.4 and incubated for 30 minutes at 37° C. The loaded cells were centrifuged (700× g, 2 minutes), then resuspended with KRB at a concentration of 500-1000 cells/mL. The tracheal cells loaded with fura-2AM were plated onto poly-lysine-coated coverslips in a custom-made Petri dish. The dish containing fura-2 loaded cells was mounted on the stage of an inverted fluorescence microscope (Carl Zeiss, NY). Only viable ciliated tracheal cells were focused on for the determination of [Ca^2+]i at 24° C. The fura-2 loaded porcine ciliated tracheal cells deteriorated quickly at 37° C. Fluorescence images were obtained (excitation wavelengths of 334 and 380 nm; emission wavelength of 510±20 nm) and used to generate spatially resolved maps of [Ca^2+]i by subtracting the background dividing the images on a pixel-by-pixel basis. The emitted signals were digitalized, recorded, and processed using the Attofluor digital fluorescence imaging system (Atto Instruments, Rockville, Md.). After reading fluorescence for 150 seconds, mycoplasmas were mixed with the cell system. [Ca^2+]i was calculated as previously described (Grynkiewicz et al., J. Biol. Chem., 260:3440-3450 (1985)). Calibration was performed in situ according to the procedure provided by Atto Instruments, using Fura-2 penta K^+ as a standard.
To compare the [Ca^2+]i of tracheal cells response to pathogenic M. hyopneumoniae strain 91-3, avirulent M. hyopneumoniae, and M. flocculare, the cells were treated with the same concentration of 300 μg/mL. One to five ciliated single tracheal cells in each experiment were selected to investigate the [Ca^2+]i changes. The mycoplasmas were maintained on ice before being applied to tracheal cells.
Data on [Ca^2+]i were analyzed by ANOVA or by Student's t-test. The significance level was set at P<0.05.

For assay [2], the system named is M. hyopneumoniae-induced [Ca2+]i increase in porcine ciliated tracheal cells. Briefly: Effect of pretreatment of tracheal cells on M. hyopneumoniae-induced [Ca2+]i increase. The format is cell-based. Here is the method: as §1
To investigate the pathway of Ca^2+ signaling, pertussis toxin (PTX, 100 ng/mL) was preincubated with tracheal cells for 3 hours. Cells were pretreated with thapsigargin (TG, 1 μM) for 30 minutes at 37° C. prior to the addition of the mycoplasmas to deplete the ER Ca^2+ store (Thastrup et al., Proc. Natl. Acad. Sci. USA, 87:2466-2470 (1990)). […] To confirm that mycoplasmas increased [Ca^2+]i by activating a Gi/o protein, Mas 7 (10 μM), an activator of this protein (Higashijima et al., J. Biol. Chem., 265:14176-14186 (1990)), was used to determine if it can increase [Ca^2+]i in tracheal cells. In addition, it was determined whether PTX can block the increase in [Ca^2+]i due to Mas 7.

The subject of assay [3] is Mas 7-induced [Ca2+]i increase in ciliated tracheal cells. Briefly: Effect of PTX pretreatment on Mas 7-induced [Ca2+]i increase. It counts as cell-based, porcine. As to conditions: PTX pretreatment (100 ng/mL, 3 hours); Mas 7 10 μM. On the procedure:
as §1, with “Only viable ciliated tracheal cells were focused on for the determination of [Ca^2+]i at 24° C. The fura-2 loaded porcine ciliated tracheal cells deteriorated quickly at 37° C.” left out, “Calibration was performed in situ according to the procedure provided by Atto Instruments, using Fura-2 penta K^+ as a standard.” left out

Assay [4] deals with guinea pig tracheal epithelia. As to conditions: trypsin 0.1 U/mL; cited from earlier work.
In assay [5] the test system is Mhyo membrane-induced [Ca2+]i increase in ciliated tracheal cells. Briefly: Protease pretreatment of Mhyo membrane, effect on membrane-induced [Ca2+]i increase. It counts as cell-based, porcine. Here is the method: FIG. 6 contains four graphs plotting [Ca^2+]i response in ciliated porcine tracheal cells inoculated with Mhyo membranes. Each trace indicates the [Ca^2+]i changes in each tracheal cell. The arrows indicate when administration occurred. (A) The membrane preparation (100 μg/mL) increased [Ca^2+]i. (B) Digestion with proteinase K blocked the membrane-induced increase in [Ca^2+]i. The membrane (100 μg/0.1 mL PBS) was incubated with proteinase K (2 μg) at 37° C. for 8 hours before it was applied to tracheal cells in 0.9 mL Krebs-Ringer bicarbonate (KRB) buffer. (C) Digestion with trypsin potentiated the membrane-induced increase in [Ca^2+]i. The membrane (100 μg/0.1 mL PBS) was incubated with trypsin (6 μg) at 37° C. for 30 minutes before it was applied to tracheal cells in 0.9 mL KRB. […] The soluble protein was prepared by subjecting the trypsinized membrane to ultracentrifigation (100,000× g, 60 minutes) to obtain the supernatant.
Mycoplasmas lack cell walls and have only one type of membrane, the plasma membrane (Razin S. (1993) Mycoplasma membranes as models in membrane research (Chapter 2), In: Subcellular Biochemistry. Vol 20: Mycoplasma Cell Membranes, edited by Rottem S, Kahane I. Plenum Press, New York. pp. 1-28). The Mhyo membrane was prepared by osmotic lysis of the organisms and tested to determine if it increased [Ca^2+]i in ciliated tracheal cells. […]

“Also recorded” adds a separate entry of the source.

Turning to Mastoparan 7, the “[Ca2+]i after administration” value in assay [1] (10 μM, from basal level of 103±4 nM, n=9 cells) was 351 ± 24 nM. In assay [1] (Mas 7 10 μM), the cells that responded is given as 82% and the “time to [Ca2+]i increase” value is at most 100 s. The “effect on [Ca2+]i” value in assay [1] (Mas 7 administration) is on record as “increased”.

On to `COc1ccc2c(c1)CC[C@@H]1[C@@H]2CC[C@]2(C)[C@@H](NCCCCCCN3C(=O)C=CC3=O)CC[C@@H]12` [U-73122], for which, in assay [2] (pretreatment 2 μM, 100 seconds, U-73122), the “effect on M. hyopneumoniae-induced [Ca2+]i increase” value was “abolished; also recorded: prevented”.

Turning to pertussis toxin, the “effect on Mas 7-induced [Ca2+]i increase” value in assay [3] is recorded as “abolished”. Further, the “effect on M. hyopneumoniae-induced [Ca2+]i increase” value in assay [2] (pretreatment 100 ng/mL, 3 hours) is on record as “abolished”.

Regarding `C/C=C(/C)C(=O)O[C@H]1C(C)=C2[C@H]([C@@H]1OC(=O)CCCCCCC)[C@@](C)(OC(C)=O)C[C@H](OC(=O)CCC)[C@@]1(O)[C@H]2OC(=O)[C@@]1(C)O` [thapsigargin], in assay [2] (pretreatment 1 μM, 30 minutes, mycoplasma 300 μg/mL), the “effect on M. hyopneumoniae-induced [Ca2+]i increase” value is recorded as “abolished”.

As to `COc1ccc2c(c1)CC[C@@H]1[C@@H]2CC[C@]2(C)[C@@H](NCCCCCCN3C(=O)CCC3=O)CC[C@@H]12` [U-73343], in assay [2] (U-73343 2 μM), the “cells that responded to mycoplasma with pretreatment” value turned out to be 82%. For the same compound, in assay [2] (U-73343 2 μM, basal: 90±12 nM, 10 cells), the “peak [Ca2+]i after mycoplasma with pretreatment” value came out at 330 ± 25 nM. Further, the “effect on M. hyopneumoniae-induced [Ca2+]i response” value in assay [2] (pretreatment 2 μM, inactive analogue U-73343) is “did not prevent”.

On to trypsin, for which the “effect on [Ca2+]i” value in assay [4] was “can increase”. For the same compound, the “effect of trypsin pretreatment on membrane-induced [Ca2+]i increase” value is on record as “potentiated” in assay [5] (pretreatment of the membrane for 30 minutes) and “failed to reduce” in assay [5] (pretreatment of the membrane for 16 hours). In addition, the “effect of trypsin alone on [Ca2+]i” value in assay [1] (trypsin alone at ≧1 U/mL) was “increase”.
